Test results from ChEMBL document CHEMBL5537195, “Novel Covalent Probe Selectively Targeting Glutathione Peroxidase 4 In Vivo: Potential Applications in Pancreatic Cancer Therapy” (J Med Chem, 2024).
The source made the active and inactive calls. No cut-off for these calls is given here.

Experiments:
ASPC1 [1] = test: Induction of ferroptosis in human ASPC1 cells assessed as cell death at 2 uM in presence of Ferrostatin-1; format: functional, cell-based
Mus musculus [2] = test: In vivo target engagement at GPX4 in SCID mouse at 10 mg/kg, ip qd administered for 14 days and measured after 2 hrs by SDS-PAGE analysis; format: functional, organism-based; conditions: time 14.0 day
[3] = target: T1, Phospholipid hydroperoxide glutathione peroxidase GPX4 (Homo sapiens) (UniProt P36969); test: Binding affinity to GPX4 in human ASPC1 cells at 0.2 uM incubated for 12 hr followed by compound washout by SDS-PAGE analysis; format: cell-based
T1 sequence (whole entry): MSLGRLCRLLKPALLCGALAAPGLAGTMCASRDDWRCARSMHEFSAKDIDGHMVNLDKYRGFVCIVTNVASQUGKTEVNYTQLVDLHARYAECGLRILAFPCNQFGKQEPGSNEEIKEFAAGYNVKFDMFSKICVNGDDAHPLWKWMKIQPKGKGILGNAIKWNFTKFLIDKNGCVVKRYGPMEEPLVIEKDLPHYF

ASPC1 [4] = test: Antiproliferative activity against human AsPC1 cells assessed as inhibition of cell growth incubated for 72 hrs by CCK-8 assay; format: functional, cell-based; conditions: ASPC1, 72 h
[5] = target: T1, Phospholipid hydroperoxide glutathione peroxidase GPX4 (Homo sapiens); test: Binding affinity to GPX4 in human ASPC1 cells incubated for 1 hr by SDS-PAGE analysis; format: cell-based; conditions: dose 0.02-0.2 µM
ASPC1 [6] = test: Induction of ferroptosis in human ASPC1 cells assessed as reduction in cell viability incubated for 48 hrs by CCK-8 assay; format: functional, cell-based; conditions: ASPC1, 48 h
[7] = target: T1, Phospholipid hydroperoxide glutathione peroxidase GPX4 (Homo sapiens); test: Binding affinity to GPX4 in human Hs766T cells at 0.2 uM incubated for 1 hr by SDS-PAGE analysis; format: cell-based
[8] = target: T1, Phospholipid hydroperoxide glutathione peroxidase GPX4 (Homo sapiens); test: Competitive binding affinity to GPX4 in human ASPC1 cells at 0.2 uM incubated for 1 hr in presence of ML162 by immunofluorescence based confocal microscopic analysis; format: cell-based
[9] = target: T1, Phospholipid hydroperoxide glutathione peroxidase GPX4 (Homo sapiens); test: Binding affinity to GPX4 in human ASPC1 cells at 0.2 uM incubated for 1 hr in presence of 4-(((4-(benzo[d]thiazol-2-yl)phenyl)(methyl)amino)methyl)-N-ethynyl-N-methylbenzenesulfonamide by SDS-PAGE analysis; format: cell-based
[10] = target: T1, Phospholipid hydroperoxide glutathione peroxidase GPX4 (Homo sapiens); test: Competitive binding affinity to GPX4 in human ASPC1 cells at 0.2 uM incubated for 1 hr in presence of ML162; format: cell-based
ASPC1 [11] = test: Induction of ferroptosis in human ASPC1 cells assessed as decrease in intracellular GSH level at 5 uM incubated for 5 hrs in absence of […]; format: functional, cell-based
[12] = target: T1, Phospholipid hydroperoxide glutathione peroxidase GPX4 (Homo sapiens); test: Binding affinity to GPX4 in human Panc1005 cells at 0.2 uM incubated for 1 hr by SDS-PAGE analysis; format: cell-based
ASPC1 [13] = test: Antitumor activity against human ASPC1 cells xenografted in NOD-SCID mouse assessed as tumor growth inhibition at 10 mg/kg, ip administered for 14 days; format: functional; conditions: ASPC1, 336 h, time 14 day, read-out: TGI
MIA PaCa-2 = test: Antiproliferative activity against human MIA PaCa-2 cells assessed as inhibition of cell growth incubated for 72 hrs by CCK-8 assay; format: functional, cell-based; conditions: MIA PaCa-2, 72 h
[14] = target: T1, Phospholipid hydroperoxide glutathione peroxidase GPX4 (Homo sapiens); test: Binding affinity to GPX4 in human ASPC1 cells at 0.2 uM incubated for 1 hr by immunofluorescence based confocal microscopic analysis; format: cell-based
Mus musculus [15] = test: In vivo target engagement at GPX4 in SCID mouse at 10 mg/kg, ip qd administered for 14 days and measured after 2 hrs by pull-down based Western blot analysis; format: functional, organism-based; conditions: time 14.0 day
[16] = target: T1, Phospholipid hydroperoxide glutathione peroxidase GPX4 (Homo sapiens); test: Competitive binding affinity to GPX4 in human ASPC1 cells at 0.2 uM incubated for 1 hr in presence of 4-(((4-(benzo[d]thiazol-2-yl)phenyl)(methyl)amino)methyl)-N-ethynyl-N-methylbenzenesulfonamide by immunofluorescence based confocal microscopic analysis; format: cell-based
HPAF-II = test: Antiproliferative activity against human HPAF-II cells assessed as inhibition of cell growth incubated for 72 hrs by CCK-8 assay; format: functional, cell-based
SW1990 = test: Antiproliferative activity against human SW1990 cells assessed as inhibition of cell growth incubated for 72 hrs by CCK-8 assay; format: functional, cell-based; conditions: SW1990, 72 h
[17] = target: T1, Phospholipid hydroperoxide glutathione peroxidase GPX4 (Homo sapiens); test: Binding affinity to GPX4 in human ASPC1 cells incubated for 1 hr by imaging analysis; format: cell-based; conditions: dose 0.2-5 µM
[18] = target: T1, Phospholipid hydroperoxide glutathione peroxidase GPX4 (Homo sapiens); test: Binding affinity to GPX4 in human HPAF-II cells at 0.2 uM incubated for 1 hr by SDS-PAGE analysis; format: cell-based
[19] = target: T2, Phosphoglycerate kinase 1 (Homo sapiens) (UniProt P00558); test: Binding affinity to PGK1 in human ASPC1 cells at 1 uM incubated for 5 hrs by Western blot analysis; format: cell-based
T2 sequence (whole entry): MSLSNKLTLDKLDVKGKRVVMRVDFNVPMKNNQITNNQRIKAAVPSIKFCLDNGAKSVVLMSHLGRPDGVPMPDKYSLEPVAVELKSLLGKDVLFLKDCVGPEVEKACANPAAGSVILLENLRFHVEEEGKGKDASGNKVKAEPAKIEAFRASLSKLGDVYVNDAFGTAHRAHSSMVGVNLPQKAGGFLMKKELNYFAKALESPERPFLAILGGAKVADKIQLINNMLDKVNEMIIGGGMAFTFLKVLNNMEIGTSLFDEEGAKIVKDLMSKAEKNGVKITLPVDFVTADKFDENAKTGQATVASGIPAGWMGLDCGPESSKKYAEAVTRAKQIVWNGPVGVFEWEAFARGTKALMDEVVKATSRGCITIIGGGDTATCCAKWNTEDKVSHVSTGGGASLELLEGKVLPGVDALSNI

ASPC1 [20] = test: Induction of ferroptosis in human ASPC1 cells assessed as effect on ROS level at 1 uM incubated for 3 hrs in presence of […]; format: functional, cell-based
PANC-1 = test: Antiproliferative activity against human PANC-1 cells assessed as inhibition of cell growth incubated for 72 hrs by CCK-8 assay; format: functional, cell-based; conditions: PANC-1, 72 h
Capan-2 = test: Antiproliferative activity against human Capan-2 cells assessed as inhibition of cell growth incubated for 72 hrs by CCK-8 assay; format: functional, cell-based
CFPAC-1 = test: Antiproliferative activity against human CFPAC-1 cells assessed as inhibition of cell growth incubated for 72 hrs by CCK-8 assay; format: functional, cell-based; conditions: CFPAC-1, 72 h
[21] = AUC (0 to t) in Sprague-Dawley rat at 2 mg/kg, iv measured upto 48 hrs by LC-MS/MS analysis; format: ADME, organism-based; conditions: in vivo
ASPC1 [22] = test: Induction of ferroptosis in human ASPC1 cells assessed as cell death at 2 uM in presence of Necrostatin-1; format: functional, cell-based
ASPC1 [23] = test: Induction of ferroptosis in human ASPC1 cells assessed as reduction in cell viability incubated for 24 hrs by CCK-8 assay; format: functional, cell-based; conditions: ASPC1, 24 h
ASPC1 [24] = test: Induction of ferroptosis in human ASPC1 cells assessed as reduction in cell viability incubated for 72 hrs by CCK-8 assay; format: functional, cell-based; conditions: ASPC1, 72 h
[25] = target: T1, Phospholipid hydroperoxide glutathione peroxidase GPX4 (Homo sapiens); test: Binding affinity to GPX4 in human ASPC1 cells at 0.2 uM incubated for 1 hr in presence of N-ethynyl-N-methyl-4-((methyl(4(trifluoromethyl)phenyl)amino)methyl)benzenesulfonamide by SDS-PAGE analysis; format: cell-based

C#CCN(Cc1ccc(S(=O)(=O)N(C)C#C)cc1)c1ccc(-c2nc3ccccc3s2)cc1
Activity (ASPC1 [1]): inactive
Activity (Mus musculus [2]): Active
Activity [3]: Active
IC50 (ASPC1 [4]): 22 nM
Activity [5]: Dose-Dependent Effect
IC50 (ASPC1 [6]): 26 nM
Activity [7]: Active
Activity [8]: inactive
Activity [9]: Active
Activity [10]: Active
Activity (ASPC1 [11]): Active
Activity [12]: Active
inhibition in vivo at 10 mg/kg (ASPC1 [13]): 28%
IC50 (MIA PaCa-2): 20 nM
Activity [14]: Active
Activity (Mus musculus [15]): Active
Activity [16]: inactive
IC50 (HPAF-II): 20 nM
IC50 (SW1990): 20 nM
Activity [17]: Dose-Dependent Effect
Activity [18]: Active
Activity [19]: Active
Activity (ASPC1 [20]): Active
IC50 (PANC-1): 20 nM
Activity (Capan-2): inactive
IC50 (CFPAC-1): 20 nM
AUC(0-t) at 48 h [21]: 915 ng·h/mL
Activity (ASPC1 [22]): inactive
IC50 (ASPC1 [23]): 37 nM
IC50 (ASPC1 [24]): 14 nM
Activity [25]: Active
